# Test results: patent EP0215956A1, “COMPOSITION FOR TREATING SKIN DISEASE” (priority 1985, dated 1986)
# Key:
# [1] = Acute toxicity test (LD50), mice; conditions: mouse, in vivo, 5-week-old ddY mice, Litchfield-Wilcoxon method
# Experimental: (§1) Acute toxicity of la-hydroxyvitamin D3 was evaluated by its peroral and subcutaneous administration to mice and rats.
# patients = conditions: human, in vivo, po
# Text: the six patients under therapy by oral administration of la-dihydroxyvitamin D3 and the one patient receiving orally administered la,25-dihydroxyvitamin D3 were subjected to the following analyses, tests and measurements at intervals of twice a month in the first two months of administration and once a month in the subsequent period: blood analysis for determining the number of erythrocytes, the number of platelets and the percentage of leucocytes; urine analysis for determining the levels of urinary protein, glucose, pH, acetone and urobilinogen and the presence of occult blood; testing liver functions by determining the levels of blood GOT, GPT and total bilirubin; testing kidney functions by determining the levels of blood creatinine and BUN; and the measurement of blood calcium and inorganic phosphate levels.
# psoriasis vulgaris = test: Peroral administration to patients with psoriasis vulgaris (case reports); assay type: in vivo, human; conditions: for psoriasis vulgaris severity: 0.75 µg per day orally
# Experimental: In order to treat this disease, 0.75 µg of la-hydroxyvitamin D3 was orally administered per day.
# This patient had been suffering from psoriasis vulgaris for one year, during which period they were under therapy involving external use of corticosteroid. […] Thereafter, the external use of corticosteroid was suspended and only la-hydroxyvitamin D3 was kept administered perorally.
# After suspending the external use of corticosteroid, peroral administration of la-hydroxyvitamin D3 in a daily dose of 1 µg was initiated.
# This patient had been suffering from psoriasis vulgaris for 2 years.
# [2] = Acute toxicity test (LD50), rats; conditions: rat, in vivo, 5-week-old SD-TCL rats, Litchfield-Wilcoxon method
# Experimental: as §1
# [3] = patient, daily dose of 1 µg perorally, two months, external corticosteroid suspended
smiles,measurement,setting,value
"C=C1/C(=C\C=C2/CCC[C@]3(C)[C@@H]([C@H](C)CCCC(C)C)CC[C@@H]23)C[C@@H](O)C[C@@H]1O [la-hydroxyvitamin D3, 1α-hydroxyvitamin D3]",LD50,"[1]; po, Peroral, female",0.71 mg/kg
same,LD50,"[1]; po, Peroral, male",0.68 mg/kg
same,LD50,"[1]; sc, subcutaneous, female",0.058 mg/kg
same,LD50,"[1]; sc, subcutaneous, male",0.055 mg/kg
same,abnormal subjective symptom or objective sign,patients,Not a single patient under therapy had any abnormal subjective symptom or objective sign
same,"change of blood, urine, liver function, kidney function, blood calcium and inorganic phosphate parameters from values prior to treatment",patients,None of the parameters analyzed showed any abnormal change
same,dermal lesion condition,"psoriasis vulgaris; patient (psoriasis for 6 years), daily dose of 1 µg perorally, three months",moderate improvement in the dermal lesion condition
same,dermal lesion condition,"psoriasis vulgaris; patient (psoriasis for 25 years), daily dose of 1 µg perorally, three months",moderate improvement in the dermal lesion condition
same,psoriasis vulgaris severity,"psoriasis vulgaris; patient, a half month after the two months and a half",virtually disappeared
same,psoriasis vulgaris severity,"psoriasis vulgaris; patient, two months and a half after start",dramatically diminished in severity
same,dermal lesion condition,"psoriasis vulgaris; patient, 1.0 µg per day orally, four months later, with external corticosteroid, slight loss of dermal pigment remained",improved pronouncedly
same,dermal lesion condition,"psoriasis vulgaris; patient, 1.0 µg per day orally, two months after start, with external corticosteroid",a sign of improvement in the dermal lesion condition
same,dermal lesion condition,"psoriasis vulgaris; patient, daily dose of 1 µg orally, two months after start",diminished by a small degree
same,dermal lesion condition,"psoriasis vulgaris; patient, daily dose of 1 µg orally, two more months later",pronounced improvement in the condition
same,condition of the lesion elsewhere on the body,psoriasis vulgaris; [3],improved markedly
same,dermal lesion on the soles,psoriasis vulgaris; [3],disappeared
same,dermal lesion condition,"psoriasis vulgaris; patient, peroral only, external corticosteroid suspended, six months later",completely cured
same,maintenance of improvement,"psoriasis vulgaris; patient, subsequent peroral daily dose of 0.5 ug",improvement could be maintained
same,LD50,"[2]; po, Peroral, female",0.743 mg/kg
same,LD50,"[2]; po, Peroral, male",0.62 mg/kg
same,LD50,"[2]; sc, subcutaneous, female",0.04 mg/kg
same,LD50,"[2]; sc, subcutaneous, male",0.056 mg/kg
"C=C1/C(=C\C=C2/CCC[C@]3(C)[C@@H]([C@H](C)CCCC(C)(C)O)CC[C@@H]23)C[C@@H](O)C[C@@H]1O [la,25-dihydroxyvitamin D3]",abnormal subjective symptom or objective sign,patients,Not a single patient under therapy had any abnormal subjective symptom or objective sign
same,"change of blood, urine, liver function, kidney function, blood calcium and inorganic phosphate parameters from values prior to treatment",patients,None of the parameters analyzed showed any abnormal change
same,dermal lesion condition,"psoriasis vulgaris; patient, daily dose of 0.5 µg perorally, three months, diminished rashes and flares",moderate improvement in the dermal lesion condition
